Measurements published in ChEMBL document CHEMBL1201862, “PubChem BioAssay data set” (2004).
Active and inactive are the calls of the source.

Key:
[1] = molecular target: Transitional endoplasmic reticulum ATPase (Homo sapiens, UniProt P55072, C522A); assay: Luminescence counterscreen assay for p97 inhibitors: dose response biochemical high throughput screening assay to identify inhibitors of the C522A mutant p97 ATPase: synthesized compounds. [Related pubchem assays: 1481, 1517, 1551 ]
[2] = molecular target: Transitional endoplasmic reticulum ATPase (Homo sapiens, UniProt P55072); assay: Luminescence dose response biochemical high throughput screening assay for inhibitors of the p97 ATPase: synthesized compounds. [Related pubchem assays: 1481, 1517 ]
Chain of Transitional endoplasmic reticulum ATPase (Homo sapiens, UniProt P55072) (P55072 whole entry): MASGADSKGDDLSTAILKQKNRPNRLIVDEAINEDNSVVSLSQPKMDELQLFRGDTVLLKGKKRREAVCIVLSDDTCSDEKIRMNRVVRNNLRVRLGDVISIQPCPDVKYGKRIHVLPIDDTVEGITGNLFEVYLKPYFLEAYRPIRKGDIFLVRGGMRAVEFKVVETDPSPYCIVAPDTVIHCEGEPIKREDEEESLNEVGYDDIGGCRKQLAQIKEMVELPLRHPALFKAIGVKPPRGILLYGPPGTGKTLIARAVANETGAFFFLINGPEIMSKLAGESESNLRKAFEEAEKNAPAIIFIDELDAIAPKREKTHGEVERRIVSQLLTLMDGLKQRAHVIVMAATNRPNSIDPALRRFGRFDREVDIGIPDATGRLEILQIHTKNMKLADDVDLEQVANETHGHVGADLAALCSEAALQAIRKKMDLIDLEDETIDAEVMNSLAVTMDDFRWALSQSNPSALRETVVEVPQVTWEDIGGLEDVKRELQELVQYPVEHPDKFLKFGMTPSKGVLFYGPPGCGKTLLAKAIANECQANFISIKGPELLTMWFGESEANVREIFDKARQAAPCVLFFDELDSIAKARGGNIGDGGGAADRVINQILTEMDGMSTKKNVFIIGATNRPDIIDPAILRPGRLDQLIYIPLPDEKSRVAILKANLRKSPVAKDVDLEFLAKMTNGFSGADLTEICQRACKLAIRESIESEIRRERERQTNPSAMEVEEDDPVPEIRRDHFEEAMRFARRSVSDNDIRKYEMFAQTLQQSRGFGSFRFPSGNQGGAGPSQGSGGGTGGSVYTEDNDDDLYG

[3] = microbe, parasite or virus in culture; type: functional; conditions: Mycobacterium tuberculosis
[4] = M. tuberculosis growth inhibition, HTS (AID 449762); type: functional
[5] = molecular target: Voltage-gated inwardly rectifying potassium channel KCNH2 (Homo sapiens, UniProt Q12809); assay: concentration-dependent hERG rescue from blockers – cell-based, thallium flux, dose response (AID 2121); type: ADME
Chain of Voltage-gated inwardly rectifying potassium channel KCNH2 (Q12809 whole entry): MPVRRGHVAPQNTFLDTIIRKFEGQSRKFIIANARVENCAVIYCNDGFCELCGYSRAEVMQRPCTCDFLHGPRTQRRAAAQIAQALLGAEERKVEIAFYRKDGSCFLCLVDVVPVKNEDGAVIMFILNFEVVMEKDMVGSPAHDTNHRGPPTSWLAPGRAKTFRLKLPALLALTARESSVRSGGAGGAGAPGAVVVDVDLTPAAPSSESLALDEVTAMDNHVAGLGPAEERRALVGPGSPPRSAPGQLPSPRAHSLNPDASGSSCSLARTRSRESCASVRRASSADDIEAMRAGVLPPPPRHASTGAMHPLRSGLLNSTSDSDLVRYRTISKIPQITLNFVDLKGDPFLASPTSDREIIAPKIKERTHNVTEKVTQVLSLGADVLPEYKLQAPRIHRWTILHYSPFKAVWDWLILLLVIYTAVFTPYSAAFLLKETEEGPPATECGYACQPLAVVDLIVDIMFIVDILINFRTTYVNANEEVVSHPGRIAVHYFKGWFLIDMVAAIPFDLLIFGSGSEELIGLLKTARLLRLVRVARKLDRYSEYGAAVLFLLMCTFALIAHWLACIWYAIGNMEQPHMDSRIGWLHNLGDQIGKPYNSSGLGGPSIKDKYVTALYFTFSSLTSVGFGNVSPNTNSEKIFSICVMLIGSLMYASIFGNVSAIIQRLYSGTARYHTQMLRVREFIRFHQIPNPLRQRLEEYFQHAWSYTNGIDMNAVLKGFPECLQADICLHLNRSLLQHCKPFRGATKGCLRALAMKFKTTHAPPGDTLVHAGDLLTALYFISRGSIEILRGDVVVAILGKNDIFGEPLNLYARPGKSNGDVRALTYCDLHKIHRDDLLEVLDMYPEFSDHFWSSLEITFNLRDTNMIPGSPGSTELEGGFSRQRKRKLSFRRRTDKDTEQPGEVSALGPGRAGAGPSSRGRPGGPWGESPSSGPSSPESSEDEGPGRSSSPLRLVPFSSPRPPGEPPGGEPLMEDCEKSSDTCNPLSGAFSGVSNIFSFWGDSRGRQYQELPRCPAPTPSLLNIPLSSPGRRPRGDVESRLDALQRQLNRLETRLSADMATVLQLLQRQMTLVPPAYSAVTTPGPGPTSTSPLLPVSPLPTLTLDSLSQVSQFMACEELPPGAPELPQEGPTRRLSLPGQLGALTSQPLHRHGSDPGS

[6] = (§1) Counterscreen for antagonists of the orexin 1 receptor (OX1R; HCRTR1): Fluorescence-based cell-based high throughput dose response assay to identify antagonists of the parental CHO cell line. [Related pubchem assays (depositor defined):AID434989, AID435008, AID463079, AID485270, AID492963, AID492964, AID492965, AID493232, AID504699, AID504701]; type: functional
Orexin receptor type 2 [7] = molecular target: T1, Orexin receptor type 2 (Homo sapiens, UniProt O43614); assay: Counterscreen assay for antagonists of the orexin 1 receptor (OX1R; HCRTR1): Fluorescence-based cell-based dose response assay for antagonists of the orexin 2 receptor (OX2R; HCRTR2), run by assay provider.; type: functional
T1 sequence (O43614 whole entry): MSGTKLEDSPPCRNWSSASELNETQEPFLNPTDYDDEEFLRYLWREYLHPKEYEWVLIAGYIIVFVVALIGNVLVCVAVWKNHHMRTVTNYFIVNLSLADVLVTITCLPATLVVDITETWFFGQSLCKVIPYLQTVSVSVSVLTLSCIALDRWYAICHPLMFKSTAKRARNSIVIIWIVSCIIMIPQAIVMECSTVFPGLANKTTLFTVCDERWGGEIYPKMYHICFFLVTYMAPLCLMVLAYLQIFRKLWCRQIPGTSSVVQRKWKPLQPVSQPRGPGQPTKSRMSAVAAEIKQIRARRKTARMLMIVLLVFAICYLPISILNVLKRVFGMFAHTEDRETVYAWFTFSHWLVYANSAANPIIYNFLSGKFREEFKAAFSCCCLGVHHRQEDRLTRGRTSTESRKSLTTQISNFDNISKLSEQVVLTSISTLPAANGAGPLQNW

Orexin receptor type 2 [8] = molecular target: T1, Orexin receptor type 2; assay: Counterscreen assay for antagonists of the orexin 1 receptor (OX1R; HCRTR1): Homogeneous Time Resolved Fluorescence (HTRF)-based cell-based dose response assay for antagonists of the orexin 2 receptor (OX2R; HCRTR2), run by assay provider.; type: functional
CHO-K1 = assay: as §1, with “Homogeneous time resolved fluorescence (HTRF)-based” for “Fluorescence-based”, “cell-based” for “cell-based high throughput”, “CHO-K1” for “CHO”; type: functional; conditions: Cricetulus griseus
[9] = molecular target: T2, Orexin/Hypocretin receptor type 1 (Homo sapiens, UniProt O43613); assay: (§2) Fluorescence-based cell-based high throughput dose response assay for antagonists of the orexin 1 receptor (OX1R; HCRTR1). [Related pubchem assays (depositor defined):AID434989, AID435008, AID463079, AID485270, AID492963, AID492964, AID492965, AID493232, AID504717, AID504718]; type: functional
T2 sequence (O43613 whole entry): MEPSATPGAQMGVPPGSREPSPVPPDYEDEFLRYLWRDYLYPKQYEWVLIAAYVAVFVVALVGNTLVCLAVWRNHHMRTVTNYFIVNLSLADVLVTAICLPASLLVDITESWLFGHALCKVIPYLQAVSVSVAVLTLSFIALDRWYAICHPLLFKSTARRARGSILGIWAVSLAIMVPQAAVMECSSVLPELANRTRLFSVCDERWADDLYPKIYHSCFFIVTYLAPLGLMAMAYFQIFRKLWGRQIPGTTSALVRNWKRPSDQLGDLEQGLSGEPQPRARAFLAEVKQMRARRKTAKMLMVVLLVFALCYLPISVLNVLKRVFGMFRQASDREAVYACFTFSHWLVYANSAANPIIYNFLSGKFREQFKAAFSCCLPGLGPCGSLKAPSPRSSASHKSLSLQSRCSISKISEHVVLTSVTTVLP

[10] = molecular target: T2, Orexin/Hypocretin receptor type 1; assay: as §2, with “Homogeneous Time Resolved Fluorescence (HTRF)-based” for “Fluorescence-based”; type: functional
Danio rerio = assay: In Vivo Angiogenesis Dose-Response Confirmation. [Related pubchem assays: 732 (Assay preceding this confirmatory assay.)]; type: functional, organism-based
Ephrin type-A receptor 4 = Ephrin type-A receptor 4 (Mus musculus, UniProt Q03137); assay: EphA4 ligand-binding antagonists – biochemical, colorimetric, mouse EphA4, primary screen (AID 689); type: functional
Chain of Ephrin type-A receptor 4 (Q03137 whole entry): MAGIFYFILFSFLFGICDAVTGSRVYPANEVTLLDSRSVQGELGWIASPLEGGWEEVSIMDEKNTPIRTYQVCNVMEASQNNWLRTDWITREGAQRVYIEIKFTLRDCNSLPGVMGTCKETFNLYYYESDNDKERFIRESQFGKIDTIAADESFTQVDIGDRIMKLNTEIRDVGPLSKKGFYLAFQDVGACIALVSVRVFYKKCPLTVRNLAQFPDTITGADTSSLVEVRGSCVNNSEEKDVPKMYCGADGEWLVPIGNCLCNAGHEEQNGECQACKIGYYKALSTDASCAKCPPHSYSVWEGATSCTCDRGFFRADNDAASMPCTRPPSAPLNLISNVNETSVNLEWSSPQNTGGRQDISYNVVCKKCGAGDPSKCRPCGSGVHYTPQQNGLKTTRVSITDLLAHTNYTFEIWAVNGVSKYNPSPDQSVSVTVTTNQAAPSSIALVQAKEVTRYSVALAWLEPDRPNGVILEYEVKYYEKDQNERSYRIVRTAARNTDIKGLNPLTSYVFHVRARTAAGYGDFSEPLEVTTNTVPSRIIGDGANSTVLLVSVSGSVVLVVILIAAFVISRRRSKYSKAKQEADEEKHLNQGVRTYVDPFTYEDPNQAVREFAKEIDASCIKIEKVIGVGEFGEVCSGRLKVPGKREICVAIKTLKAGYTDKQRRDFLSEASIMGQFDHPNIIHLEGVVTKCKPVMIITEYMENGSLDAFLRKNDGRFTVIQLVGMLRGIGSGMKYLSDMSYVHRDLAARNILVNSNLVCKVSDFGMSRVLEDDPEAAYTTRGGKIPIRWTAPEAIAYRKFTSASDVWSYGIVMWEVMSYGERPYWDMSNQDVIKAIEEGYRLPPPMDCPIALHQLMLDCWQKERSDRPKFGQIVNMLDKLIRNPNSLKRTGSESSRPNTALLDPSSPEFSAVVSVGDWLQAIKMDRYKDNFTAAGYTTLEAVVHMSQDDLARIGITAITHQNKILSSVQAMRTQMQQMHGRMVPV

BJ [11] = assay: cells; type: functional, cell-based; conditions: Homo sapiens
[12] = DRD fibroblast viability loss – cell-based, non-viral oncogenic, luminescence, dose response (AID 1934); type: functional; conditions: Homo sapiens
BJ [13] = assay: BJ-TERT-LT-ST fibroblast viability loss – cell-based, RAS-independent, luminescence, dose response (AID 1935); type: functional; conditions: Homo sapiens;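 note: BJ fibroblasts immortalized with TERT plus LT and ST oncogenes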
BJ [14] = assay: BJ-TERT fibroblast viability loss – cell-based, RAS-independent, luminescence, dose response (AID 1933); type: functional; conditions: Homo sapiens
Jurkat = assay: blockers of NF-kB activation in T cells – Jurkat, luciferase reporter, luminescence, B- and T-cell, dose response (AID 489004); type: functional, cell-based; conditions: Homo sapiens;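 note: NF-kB luciferase reporter Jurkat cells stimulated with PMA plus ionomycin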
[15] = general cell-killing toxicity readout – plate reader, dry powder samples, cytotoxicity control for PAX8 inhibitor project, dose response (AID 743021); type: functional, cell-based
Paired box protein Pax-8 = Paired box protein Pax-8 (Homo sapiens, UniProt Q06710); assay: PAX8 transcriptional activity inhibition in RMG-I – RMG-I cells, luciferase, cherry-pick, dose response (AID 687027); type: functional, cell-based;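 note: luciferase reporter driven by Pax8 target thyroperoxidase promoter measured by SteadyGlo luminescence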
Chain of Paired box protein Pax-8 (Q06710 whole entry): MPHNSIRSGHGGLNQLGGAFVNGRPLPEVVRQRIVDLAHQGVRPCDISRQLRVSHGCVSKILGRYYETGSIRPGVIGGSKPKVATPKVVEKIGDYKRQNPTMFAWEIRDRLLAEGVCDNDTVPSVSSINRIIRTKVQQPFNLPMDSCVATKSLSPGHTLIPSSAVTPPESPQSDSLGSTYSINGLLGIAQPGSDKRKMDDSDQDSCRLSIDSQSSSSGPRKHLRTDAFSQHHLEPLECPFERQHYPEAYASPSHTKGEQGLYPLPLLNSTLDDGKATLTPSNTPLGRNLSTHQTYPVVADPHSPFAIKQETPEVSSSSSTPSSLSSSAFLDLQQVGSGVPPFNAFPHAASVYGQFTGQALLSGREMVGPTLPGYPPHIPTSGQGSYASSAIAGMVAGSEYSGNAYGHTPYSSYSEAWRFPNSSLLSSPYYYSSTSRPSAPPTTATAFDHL

[16] = HEK-293T viability loss, compound-treated – cell-based, uHTS hits, cytotoxicity control for B/T-cell NF-kB inhibitor project, dose response (AID 489019); type: functional;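 note: IC50 reflects cytotoxicity as loss of cell viability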
BJ [17] = assay: growth inhibition of engineered Ras-driven BJ cells – cell-based, alamar blue fluorescence, cherrypicked samples, dose response (AID 2631); type: functional; conditions: Homo sapiens;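 note: confirmatory dose-response assay in RAS-dependent BJ fibroblasts engineered with TERT, LT and ST, with cytotoxicity read by fluorescence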
[18] = Luminescent dose response cell-based high throughput screening assay for inhibitors of the Janus kinase 2 mutant JAK2V617F. [Related pubchem assays: 1446 (Primary screen.), 1521 (Confirmation assay.), 1486 (Counter screen.)]; type: functional

Chain of Transitional endoplasmic reticulum ATPase (Homo sapiens, UniProt P55072, C522A) (P55072 2-806 C522A limits assumed): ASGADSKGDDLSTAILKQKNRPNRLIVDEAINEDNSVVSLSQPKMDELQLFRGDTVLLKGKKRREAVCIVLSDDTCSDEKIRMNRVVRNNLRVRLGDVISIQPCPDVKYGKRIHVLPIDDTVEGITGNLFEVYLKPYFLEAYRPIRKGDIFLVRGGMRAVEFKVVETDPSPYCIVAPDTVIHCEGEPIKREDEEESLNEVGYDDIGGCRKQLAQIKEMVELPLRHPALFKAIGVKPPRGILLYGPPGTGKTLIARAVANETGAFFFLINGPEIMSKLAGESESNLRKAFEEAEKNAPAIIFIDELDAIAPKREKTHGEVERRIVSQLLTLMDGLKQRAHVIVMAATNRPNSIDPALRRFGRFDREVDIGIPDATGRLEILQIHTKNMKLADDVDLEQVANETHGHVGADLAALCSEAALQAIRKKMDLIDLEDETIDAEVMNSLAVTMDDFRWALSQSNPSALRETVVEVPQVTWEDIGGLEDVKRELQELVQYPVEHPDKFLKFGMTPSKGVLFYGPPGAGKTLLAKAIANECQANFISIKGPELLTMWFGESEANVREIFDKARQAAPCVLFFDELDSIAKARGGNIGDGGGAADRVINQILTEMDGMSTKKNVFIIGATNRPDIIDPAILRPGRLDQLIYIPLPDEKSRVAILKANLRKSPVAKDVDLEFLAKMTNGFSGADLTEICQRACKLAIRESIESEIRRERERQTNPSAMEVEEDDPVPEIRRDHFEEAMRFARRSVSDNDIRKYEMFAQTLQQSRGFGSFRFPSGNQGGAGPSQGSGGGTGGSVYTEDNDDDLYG

## CCOC(=O)/C(C#N)=C/c1c[nH]c2ccc(C#N)cc12
[1]
  IC50: > 50 µM (not active)
[2]
  IC50: > 50 µM (not active)

## O=C(N/N=C/c1cn(-c2ccccc2)nc1-c1cccs1)c1ccc(Cl)cc1
[3]
  CC50: 23.1 µM (active)
[4]
  IC50: > 100 µM (active)

## O=C(NC(=S)Nc1nc(-c2ccccc2)cs1)c1ccco1
[5]
  EC50: 0.15 µM (active)
[6]
  IC50: > 49.7 µM (inactive)
Orexin receptor type 2 [7]
  IC50: > 88.8 µM (inactive)
Orexin receptor type 2 [8]
  IC50: > 50 µM (inactive)
CHO-K1
  IC50: > 66.2 µM (inactive)
[9]
  IC50: > 49.7 µM (inactive)
[10]
  IC50: 7.37 µM (active)

## O=C1Nc2ccc(F)cc2/C1=C1/Nc2ccc(Br)cc2/C1=N\O
Danio rerio
  IC50: 0.29 µM (not active)

## Cc1ccc(C)c(OCc2nnc(N)s2)c1
Ephrin type-A receptor 4
  IC50: > 100 µM (not active)

## O=C(CCl)/N=c1\sccn1Cc1ccccc1Cl
BJ [11]
  EC50: 1.33 µM (inconclusive)
[12]
  EC50: 0.691 µM (active)
BJ [13]
  EC50: 12.1 µM (inconclusive)
BJ [14]
  EC50: 0.403 µM (inconclusive)
Jurkat
  IC50: 0.31 µM (active)
[15]
  AC50: 2.74 µM (active)
Paired box protein Pax-8
  AC50: 1.64 µM (active)
[16]
  IC50: > 80 µM (inactive)
BJ [17]
  EC50: 0.343 µM (active)
[18]
  IC50: 0.442 µM (active)
